Assay results reported in patent US20120283334A1, “Treatment of Viral Infections” (Biocopea, Ltd., priority 2009, published 2012).
Entries after “also recorded” stand apart in the source; their conditions may differ. Where two headings read alike, the source gives them in different places.

Experiments:
[1] = tested on: Influenza A/PR/8/34 (H1N1 virus); experiment: In vivo mouse influenza challenge, dobutamine and ritodrine intra-peritoneal; conditions: H1N1-infected mice; for Sum Total Morbidity: FIG. 3
Procedure: 5) In Vivo Mouse Studies Using Dobutamine
Protocol: Fifty (50) C57BL/6 female mice (6-7 weeks old), were divided into […] experimental groups containing ten (10) animals each. On day 1, animals received an intranasal lethal dose (50 μl total, 25 μl nostril) of Influenza A/PR/8/34 under halothane induced anesthesia. On Day 3, animals received one intra-peritoneal injection (100-150 μl) of the test compound. On Day 4 or 5, all animals still alive received a second intra-peritoneal injection (100-150 μl) of the test compound.
All animals were assessed daily for morbidity, weight loss and survival from Day 1 until at least Day 6. Morbidity variables (i.e. Body Condition, Posture, Activity, Piloerection, Respiration, Vocalisation, Ataxia and Oculo/Nasal Discharges) were recorded according to the following scale of severity: Normal (0), Mild (1), Laboured (2) and Severe/Cull-point (3).
Using standard techniques as described above, mice were infected with a H1N1 virus which was allowed to become established in each of the subjects. Each test mouse was then treated with dobutamine (BC1021) either with a single dose on day 3 after infection with the virus, or as two doses, one on day 3 and one on day 4 after infection. In the control mice, no dobutamine was administered. The weight loss of both treated and untreated mice was then determined.
The inventors also investigated the effects of dobutamine (single and double doses) as well as ritodrine (single and double doses) on the Sum Total Morbidity of the tested mice. Referring to FIG. 3, there are shown the data of these experiments. The value of Sum Total Morbidity corresponds to a confidence value of the general “wellness” of the mice, and takes into account the quality of the fur and grooming of the mice, and whether or not the mice are able to feed and walk. Measurement of Morbidity values will be known to the skilled technician.

[2] = tested on: Con A stimulated cells; experiment: Percentage cell survival of Con A stimulated cells; conditions: for Percentage cell survival compared to 100% untreated cells under Con A stimulation: compound only (no Con A)
[3] = tested on: Con A-stimulated cells; experiment: Cell cytotoxicity compared to digitonin under Con A stimulation
Text: Digitonin is a glycoside obtained from Digitalis purpurea, which acts as a detergent, and effectively water-solubilizes lipids in the plasma membrane. Therefore, digitonin can be used to permeabilise cell membranes. The inventors therefore investigated digitonin's cell membrane-permeabilising effects on Con A-stimulated cells to determine the cytotoxic effects of ritodrine or dobutamine.

[4] = tested on: Con A stimulated cells; conditions: for Percentage cell survival compared to 100% untreated cells under Con A stimulation: human
[5] = two doses on days 3 and 4 (Groups C and E)

SMILES: CC(CCc1ccc(O)cc1)NCCc1ccc(O)c(O)c1 (stereo not drawn) [BC1021, dobutamine]
- Sum Total Morbidity ([1]; all doses, single or double): improvement of the morbidity value
- effect on weight loss ([1]; single dose on day 3, FIG. 1): little effect
- percentage survival of mice ([1]; single dose on day 3, FIG. 2): little effect
- Sum Total Morbidity [1, 5]: the most improvements; also recorded: the most effective
- lower reduction in weight loss than the control mice ([1]; two doses on days 3 and 4 after infection, FIG. 1): ≥ 10%
- percentage survival of mice ([1]; two doses, day 3 and day 4, FIG. 2): higher survival rate than the control
- Percentage cell survival compared to 100% untreated cells under Con A stimulation ([2]; 1 μM): 76.89%
- Percentage cell survival compared to 100% untreated cells under Con A stimulation ([2]; 10 μM): 69.80%
- Percentage cell survival compared to 100% untreated cells under Con A stimulation ([2]; 100 μM): 44.95%
- percentage cell survival compared to the untreated controls ([2]; text summary of Table 5, all doses): higher
- Percentage cytotoxicity compared to 100% for digitonin under Con A stimulation ([3]; compound only (no Con A), 1 μM): 47.71%
- Percentage cytotoxicity compared to 100% for digitonin under Con A stimulation ([3]; compound only (no Con A), 10 μM): 42.94%
- Percentage cytotoxicity compared to 100% for digitonin under Con A stimulation ([3]; compound only (no Con A), 100 μM): 32.33%
- cytotoxicity rates in treated samples ([3]; text summary of Table 6, vast majority of cases): lower

SMILES: CC(NCCc1ccc(O)cc1)C(O)c1ccc(O)cc1 (stereo not drawn) [BC1023, ritodrine]
- Sum Total Morbidity ([1]; all doses, single or double): improvement of the morbidity value
- Sum Total Morbidity [1, 5]: the most improvements
- cytotoxicity rates in treated samples [3]: lower
- Percentage cytotoxicity compared to 100% for digitonin under Con A stimulation ([3]; human, 1 μM): 44.54%
- Percentage cytotoxicity compared to 100% for digitonin under Con A stimulation ([3]; human, 10 μM): 43.63%
- Percentage cytotoxicity compared to 100% for digitonin under Con A stimulation ([3]; human, 100 μM): 43.81%
- percentage cell survival compared to the untreated controls [4]: higher
- Percentage cell survival compared to 100% untreated cells under Con A stimulation ([4]; 1 μM): 78.69%
- Percentage cell survival compared to 100% untreated cells under Con A stimulation ([4]; 10 μM): 75.25%
- Percentage cell survival compared to 100% untreated cells under Con A stimulation ([4]; 100 μM): 72.56%
